{
  "source": "paper PMC5578999",
  "about": "“Novel quinolone chalcones targeting colchicine-binding pocket kill multidrug-resistant cancer cells by inhibiting tubulin activity and MRP1 function” (Scientific Reports, 2017)",
  "key": {"[1]": {"system": "HEK293-MRP1", "experiment": "SRB cell viability, MRP1-overexpressing cells", "assay_type": "cell-based, human", "conditions": "HEK293-MRP1 vs HEK293", "excerpt": "Parental HEK293 and M RP1- overexpressing HEK293- MRP1 isogenic cel ls were kind gifts of Dr. Susan Cole (Queen’s Universit y, Kingston, Ontario, Canada). […]\n(§1) Cell viability, com binational i ndex and cell synchronization\n(§2) Cell viability and proliferation were ex amined using a s ulforhodamine B (SRB) assa y as […]\n(§3) IC 50 values were calculat ed from si gmoidal dose-response cu rves gen erat ed b y at least two indepen dent ex periments , with each quadruplicate samples, using GraphPad Prism v.5.04 software (GraphPad Software, Inc, La J olla, CA). […]\n(§4) (sham) or presence of compound(s). […]"}, "[2]": {"biological_target": "T1, MRP1 (Homo sapiens, UniProt P33527)", "T1 construct": "expressed in transfected cells; host or cells: HEK293-MRP1 (gift of Dr. Susan Cole)", "T1 sequence (P33527 whole entry)": "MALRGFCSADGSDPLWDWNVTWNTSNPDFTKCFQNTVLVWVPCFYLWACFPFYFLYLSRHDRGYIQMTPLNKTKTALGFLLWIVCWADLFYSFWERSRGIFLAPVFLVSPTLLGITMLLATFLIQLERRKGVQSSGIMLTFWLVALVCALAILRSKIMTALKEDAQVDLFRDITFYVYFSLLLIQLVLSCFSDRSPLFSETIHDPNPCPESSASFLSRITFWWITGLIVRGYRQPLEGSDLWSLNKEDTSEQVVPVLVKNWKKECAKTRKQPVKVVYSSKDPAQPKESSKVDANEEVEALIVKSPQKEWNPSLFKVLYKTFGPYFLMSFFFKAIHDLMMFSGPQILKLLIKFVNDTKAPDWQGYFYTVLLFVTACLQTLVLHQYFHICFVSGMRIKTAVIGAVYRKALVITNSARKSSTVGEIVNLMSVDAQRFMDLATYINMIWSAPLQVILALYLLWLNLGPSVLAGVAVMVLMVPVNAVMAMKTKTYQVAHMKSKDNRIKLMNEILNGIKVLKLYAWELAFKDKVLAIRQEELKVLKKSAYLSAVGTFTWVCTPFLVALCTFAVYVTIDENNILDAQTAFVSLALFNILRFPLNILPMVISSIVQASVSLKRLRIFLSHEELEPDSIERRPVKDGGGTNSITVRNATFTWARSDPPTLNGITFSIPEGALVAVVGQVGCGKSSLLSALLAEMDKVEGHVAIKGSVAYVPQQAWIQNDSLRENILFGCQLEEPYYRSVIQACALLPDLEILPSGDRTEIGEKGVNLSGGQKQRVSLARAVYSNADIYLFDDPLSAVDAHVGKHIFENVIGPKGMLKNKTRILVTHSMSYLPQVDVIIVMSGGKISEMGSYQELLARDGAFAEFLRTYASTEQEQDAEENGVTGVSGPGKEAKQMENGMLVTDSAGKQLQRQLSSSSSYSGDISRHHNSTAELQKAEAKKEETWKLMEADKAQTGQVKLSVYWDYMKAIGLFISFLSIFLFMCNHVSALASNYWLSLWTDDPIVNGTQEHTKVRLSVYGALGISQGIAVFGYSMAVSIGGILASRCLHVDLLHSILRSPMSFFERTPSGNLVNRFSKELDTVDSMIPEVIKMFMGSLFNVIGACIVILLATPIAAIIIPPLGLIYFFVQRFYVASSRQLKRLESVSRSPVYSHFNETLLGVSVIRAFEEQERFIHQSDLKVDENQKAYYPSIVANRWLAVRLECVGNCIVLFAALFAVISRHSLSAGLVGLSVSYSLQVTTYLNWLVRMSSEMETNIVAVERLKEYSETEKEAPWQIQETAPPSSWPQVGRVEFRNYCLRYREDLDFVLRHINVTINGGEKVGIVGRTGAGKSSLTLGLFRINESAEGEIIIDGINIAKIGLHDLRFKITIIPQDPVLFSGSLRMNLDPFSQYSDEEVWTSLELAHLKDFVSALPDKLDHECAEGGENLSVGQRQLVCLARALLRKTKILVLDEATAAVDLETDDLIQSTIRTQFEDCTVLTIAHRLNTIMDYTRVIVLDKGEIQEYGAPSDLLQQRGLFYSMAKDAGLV", "experiment": "Rh123 dye efflux assay, HEK293-MRP1 cells", "assay_type": "cell-based", "conditions": "22 µmol/L of drug, DMSO control 39.6%", "protocol": "Rhodamine123 (Rh123) drug efflux was carried out using a Multidrug-Resistance Direct Dye Efflux Activity Kit (Millipore, Darmstadt, Germany), with some modifications. […] Reading was carried out with a Beckman Coulter FC500 flow cytometer."}, "[3]": {"biological_target": "T1, MRP1", "experiment": "Calcein-AM retention assay, HEK293-MRP1 cells", "assay_type": "cell-based", "conditions": "22 µmol/L, DMSO control 52%"}, "[4]": {"system": "KB-C-2", "experiment": "SRB cell viability, MDR1-overexpressing cells", "assay_type": "cell-based", "conditions": "Homo sapiens, KB-C2; KB-C-2; Table S1", "protocol": "(§5) human epidermoid carcinoma cell line and KB-C2, an isogenic MDR1- overexpressing drug-resistant cell line, were kindl y provided b y Dr. Amit K Tiwari, the Universit y of Toledo, OH. […]\n(§6) Cell line authentication was carried out by Genetica DNA\nas §1, §2, §3, §4"}, "[5]": {"system": "KB-C-1", "experiment": "SRB cell viability, parental cells", "assay_type": "cell-based", "conditions": "Homo sapiens, KBC-1; KB-C-1; Table S1", "protocol": "as §5, §6, §1, §2, §3, §4"}, "[6]": {"system": "SW-1271", "experiment": "SRB cell viability", "assay_type": "cell-based", "conditions": "SW1271, Table S1", "protocol": "as §6, §1, §2, §3, §4"}, "[7]": {"system": "H69AR", "experiment": "SRB cell viability, multidrug-resistant cells", "assay_type": "cell-based", "conditions": "Table S1; for Resistance (fold): H69AR vs SW-1271; for IC50: Homo sapiens, H69AR", "protocol": "as §6, §1, §2, §3, §4"}, "[8]": {"system": "MDA-MB-231TaxR", "experiment": "SRB cell viability, paclitaxel-resistant cells", "assay_type": "cell-based", "conditions": "MDA-MB-231TaxR vs MDA-MB-231", "protocol": "(§7) Dr. Susan Cole (Queen’s Universit y, Kingston, Ontario, Canada). The pacl itaxel-resistant MDA-MB-231TaxR cell line was generated in house b y culturing MDA-MB-231 cells (purchased from ATCC and authen ticated ) in the gradual l y incr easi ng con centr ations of pacl itax el until the concentration reached to 100 nM. Cell line authentication was carried out by Genetica DNA Laboratories (Burlington, NC) using a short tandem repeat (STR) profiling method (March 2015; […]\nas §1\nas §3, with “Cell viability and proliferation were ex amined using a s ulforhodamine B (SRB) assa y as described previousl y (Hu et al., 2008). IC” for “IC”\n(§8) (Romero and Lee, 2008), and the cells were r eleas ed in to complete medium in the absence (sham) or presence of compound(s). […]"}, "[9]": {"system": "MDA-MB-231 triple-negative metastatic breast cancer cells", "experiment": "Antitumor activity in engrafted athymic mice", "assay_type": "in vivo, ATH490 athymic mice", "protocol": "The animals were then immediately euthanized by carbon dioxide. […]\nSupplementary Table S2. A typical treatment protocol of engrafted mice with CTR alone or in\ncombination with paclitaxel.\nTreatment Dos a ge Frequ enc y Route Notes\nSham control Highest volume E v e r y 3-4 d a ys Intraperitoneal (I.P.) Vehicle onl y\nTaxa 10 mg/kgb Once/week Intravenous ( I.V.)\nCTR-17 (30) 30 mg/kg E v e r y 3-4 d a ys I. P .\nCTR-20 (30) 30 mg/kg E v e r y 3-4 d a ys I. P .\nSupplementary Table S 3: Antitumor activity of CTR -17 and CTR -20, alone or in combination\na Tax: paclitaxel. b mg per kg of bod y wei ght. c unit is mm 3. […]"}, "[10]": {"conditions": "mouse, in vivo", "description": "Athymic mice engrafted with tumor cells were used to determine antitumor activity. […] When tumor size reached 5–6 mm in diameter (n = 4–5 per group), mice were randomly assigned into several groups and vehicle-treated or treated with drug(s). […] Animals were monitored for food and water consumption every day, and their body weights and tumor volumes were measured twice per week. Tumor volumes were measured with a digital caliper and were determined by the following formula: ½ length × width^2. Blood samples were collected via cardiac puncture and processed for ALT and AST measurements. The animals were then immediately euthanized by carbon dioxide. Tumors and vital organs (spleen, kidney, liver and lung) were harvested and fixed in 10% buffered formalin at 4 °C overnight before being processed for a paraffin embedding. The paraffin-embedded blocks were then sectioned to 4–5 µm thick. Each section was stained with haematoxylin and eosin (H&E)."}, "[11]": {"system": "KB-C-2", "experiment": "SRB cell viability, MDR1-overexpressing cells", "assay_type": "cell-based, human", "conditions": "for Resistance (fold): KB-C-2 vs KB-C-1, Table S1"}, "[12]": {"system": "MDA-MB-231", "experiment": "SRB cell viability and combinational index", "assay_type": "cell-based", "conditions": "Homo sapiens; MDA-MB-231 cells", "protocol": "as §7, §1\nas §3, with “Cell viability and proliferation were ex amined using a s ulforhodamine B (SRB) assa y as described previousl y (Hu et al., 2008). IC” for “IC”\n737/ABT-199 w ere us ed at or below IC 50 . The combinational index (CI) w as calculat ed as previousl y described (Chou, 2006). […]\nas §8"}},
  "data": [
    {"smiles": "COc1cc2c(c(OC)c1OC)-c1ccc(OC)c(=O)cc1[C@@H](NC(C)=O)CC2", "note": "[colchicine]", "values": [
      {"measurement": "resistance of MRP1-overexpressing HEK293 cells", "setting": "[1]", "result": "approximately 3.5 fold"},
      {"measurement": "Rh123 retention", "setting": "[2]", "result": 77.6, "unit": "%"},
      {"measurement": "calcein-AM retained in the cells", "setting": "[3]", "result": 59, "unit": "%"}
    ]},
    {"smiles": "CC(=O)O[C@H]1C(=O)[C@@]2(C)[C@H]([C@H](OC(=O)c3ccccc3)[C@]3(O)C[C@H](OC(=O)[C@H](O)[C@@H](NC(=O)c4ccccc4)c4ccccc4)C(C)=C1C3(C)C)[C@]1(OC(C)=O)CO[C@@H]1C[C@@H]2O", "note": "[paclitaxel, reference compound]", "values": [
      {"measurement": "IC50", "setting": "[4]", "result": "23.08 ± 0.21", "unit": "nM"},
      {"measurement": "IC50", "setting": "[5]", "result": "2.01 ± 0.17", "unit": "nM"},
      {"measurement": "IC50", "setting": "[6]", "result": "4.51 ± 0.71", "unit": "nM"},
      {"measurement": "Resistance (fold)", "setting": "[7]", "result": 2.44, "unit": "fold"},
      {"measurement": "IC50", "setting": "[7]", "result": "11 ± 2.6", "unit": "nM"},
      {"measurement": "resistance of MDA-MB-231TaxR", "setting": "[8]", "result": 114, "unit": "times"},
      {"measurement": "tumor volume Day 0", "setting": "[9]; Tax 10 mg/kg i.v. once/week, CTR 30 mg/kg i.p. every 3-4 days, combinations Tax 5 + CTR 15 mg/kg once/week", "result": 91.84, "unit": "mm3"},
      {"measurement": "tumor volume Day 6", "setting": "[9]; Tax 10 mg/kg i.v. once/week, CTR 30 mg/kg i.p. every 3-4 days, combinations Tax 5 + CTR 15 mg/kg once/week, sham 105.03", "result": 90.11, "unit": "mm3"},
      {"measurement": "tumor volume Day 14", "setting": "[9]; same doses, sham 136.66", "result": 94.66, "unit": "mm3"},
      {"measurement": "tumor volume Day 17", "setting": "[9]; same doses, sham 162.62", "result": 92.33, "unit": "mm3"},
      {"measurement": "tumor volume Day 20", "setting": "[9]; same doses, sham 192.69", "result": 81.66, "unit": "mm3"},
      {"measurement": "tumor volume Day 24", "setting": "[9]; same doses, sham 268.08", "result": 95.61, "unit": "mm3"},
      {"measurement": "tumor volume Day 27", "setting": "[9]; same doses, sham 426.87", "result": 139.41, "unit": "mm3"},
      {"measurement": "tumor volume Day 30", "setting": "[9]; same doses, sham 557.66", "result": 170.36, "unit": "mm3"},
      {"measurement": "mice showing presence of hyaline in kidney", "setting": "[10]", "result": "one in four mice"},
      {"measurement": "resistance ratio of KB-C-2 vs KB-C-1 cells", "setting": "[11]", "result": 11.48, "unit": "folds"},
      {"measurement": "Resistance (fold)", "setting": "[11]", "result": 11.48, "unit": "fold"}
    ]},
    {"smiles": "CC1(C)CCC(CN2CCN(c3ccc(C(=O)NS(=O)(=O)c4ccc(NCC5CCOCC5)c([N+](=O)[O-])c4)c(Oc4cnc5[nH]ccc5c4)c3)CC2)=C(c2ccc(Cl)cc2)C1", "note": "[ABT-199]", "values": [
      {"measurement": "IC50", "setting": "[12]", "result": "11600 ± 1130", "unit": "nM"}
    ]},
    {"smiles": "CC[C@]1(O)C[C@@H]2CN(CCc3c([nH]c4ccccc34)[C@@](C(=O)OC)(c3cc4c(cc3OC)N(C)[C@H]3[C@@](O)(C(=O)OC)[C@H](OC(C)=O)[C@]5(CC)C=CCN6CC[C@]43[C@@H]65)C2)C1", "note": "[vinblastine]", "values": [
      {"measurement": "IC50", "setting": "[4]", "result": "9.27 ± 3.22", "unit": "nM"},
      {"measurement": "IC50", "setting": "[5]", "result": "0.61 ± 0.09", "unit": "nM"},
      {"measurement": "IC50", "setting": "[6]", "result": "1.75 ± 0.21", "unit": "nM"},
      {"measurement": "Resistance (fold)", "setting": "[7]", "result": 5.82, "unit": "fold"},
      {"measurement": "IC50", "setting": "[7]", "result": "10.2 ± 1.97", "unit": "nM"},
      {"measurement": "resistance ratio of KB-C-2 vs KB-C-1 cells", "setting": "[11]", "result": 15.20, "unit": "folds"},
      {"measurement": "Resistance (fold)", "setting": "[11]", "result": 15.20, "unit": "fold"}
    ]},
    {"smiles": "CN(C)CC[C@H](CSc1ccccc1)Nc1ccc(S(=O)(=O)NC(=O)c2ccc(N3CCN(Cc4ccccc4-c4ccc(Cl)cc4)CC3)cc2)cc1[N+](=O)[O-]", "note": "[ABT-737]", "values": [
      {"measurement": "IC50", "setting": "[12]", "result": "28500 ± 3990", "unit": "nM"}
    ]}
  ]
}
